Compound in experiment [1]: T1, CC[C@@]1(O)C(=O)OCc2c1cc1n(c2=O)Cc2cc3ccccc3nc2-1 [CAMPTOTHECIN]
Briefly: surviving fraction relative to DMSO-only wells; higher = less growth inhibition. The following applies: exposure time: 5 days. A digest of the protocol:
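Log-phase tumour cells were seeded at 250–500 per well in 384-well plates and, from 24 hours after seeding, exposed continuously for five days to inhibitors at 0.5, 1, 5, 10, 50, 100, 500 and 1000 nM. Surviving fraction is CellTiter-Glo luminescence normalised to the median of DMSO-only wells. Luminescence was measured after 10 minutes at room temperature, and only lines screened three times with replicate Pearson r >0.7 and median Z' >0.3 were kept.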

Compound in experiment [2]: CC(=O)NCC(=O)N1[C@@H]2CC[C@H]1c1ccc(Nc3ncc(C(F)(F)F)c(NC4CCC4)n3)cc12
Nature of the experiment: area under dose-response curve of surviving fraction (unscaled, Aref=0) (surviving fraction x log10(nM)); higher = more resistant. The following applies: exposure time: 5 days; dose range 0.5-1000 nM. A digest of the protocol:
(§1)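 Each tumour cell line was screened three times in 384-well plates, receiving eight inhibitor concentrations from 0.5 to 1000 nM for five days. CellTiter-Glo luminescence gave viability, normalised to DMSO-only wells. Using the drc R package, surviving fractions were fitted with 3-parameter logistic dose-response curves, and the unscaled activity area over log10 dose (Aref = 0) was taken as the area under the curve.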

Compound in experiment [3]: CC(=O)O[C@H]1C(=O)[C@@]2(C)[C@H]([C@H](OC(=O)c3ccccc3)[C@]3(O)C[C@H](OC(=O)[C@H](O)[C@@H](NC(=O)c4ccccc4)c4ccccc4)C(C)=C1C3(C)C)[C@]1(OC(C)=O)CO[C@@H]1C[C@@H]2O [PACLITAXEL]
Described as above. The following applies: exposure time: 5 days; dose range 0.5-1000 nM. A digest of the protocol: as §1

Compound in experiment [4]: CC(=O)c1c(C)c2cnc(Nc3ccc(N4CCNCC4)cn3)nc2n(C2CCCC2)c1=O
The description is as above. The following applies: exposure time: 5 days; dose range 0.5-1000 nM. A digest of the protocol: as §1

Compound in experiment [5]: T1, CAMPTOTHECIN
Described as above. The following applies: exposure time: 5 days; dose range 0.5-1000 nM. A digest of the protocol: as §1

Compound in experiment [6]: COCC[n+]1c2c(n(Cc3cnccn3)c1C)C(=O)c1ccccc1C2=O [YM155]
Described as above. The following applies: exposure time: 5 days; dose range 0.5-1000 nM. A digest of the protocol:
as §1

Compound in experiment [7]: COc1cc2ncnc(Nc3ccc(F)c(Cl)c3)c2cc1OCCCN1CCOCC1 [GEFITINIB]
The description is as above. The following applies: exposure time: 5 days; dose range 0.5-1000 nM. A digest of the protocol:
as §1

Compound in experiment [8]: C[C@]1(O)C[C@@H](c2nc(-c3ccc4ccc(-c5ccccc5)nc4c3)c3c(N)nccn32)C1 [OSI-906]
Described as above. To be noted: exposure time: 5 days; dose range 0.5-1000 nM. A digest of the protocol: as §1

Compound in experiment [9]: Cc1ccc(-c2cc(C(F)(F)F)nn2-c2ccc(S(N)(=O)=O)cc2)cc1 [CELECOXIB]
The description is as above. The following applies: exposure time: 5 days; dose range 0.5-1000 nM. A digest of the protocol:
as §1

Compound in experiment [10]: O=C(O)C1(C(=O)O)CCC1.[NH2-].[NH2-].[Pt+2] [CARBOPLATIN]
Described as above. To be noted: exposure time: 5 days; dose range 0.5-1000 nM. A digest of the protocol: as §1

± gives the standard deviation of the averaged measurements.

With HU09 BONE, the surviving fraction in experiment [1] (0.5 nM) is 0.84 ± 0.015; in [1] (1 nM), 0.82 ± 0.06; in [1] (5 nM), 0.311 ± 0.065; in [1] (10 nM), 0.0673 ± 0.011; in experiment [1] (50 nM) it was 0.026 ± 0.0027; in [1] (100 nM), 0.0207 ± 0.00058. Moreover, the surviving fraction in [1] (500 nM) is 0.0163 ± 0.00058; in experiment [1] (1000 nM), 0.0203 ± 0.0011. The “area under dose-response curve” value is 2.44 in experiment [2]; 0.426 in [3]; 3.47 in experiment [4]; 0.747 in [5]; 2.13 in [6]; 3.37 in experiment [7]. The “area under dose-response curve” value in [8] was 2.66; in [9] it was 3.26; in experiment [10] it was 3.58.
As for CAL120 BREAST, the surviving fraction worked out at 0.901 ± 0.069 in [1] (0.5 nM); 0.819 ± 0.0086 in experiment [1] (1 nM); 0.409 ± 0.033 in experiment [1] (5 nM); 0.314 ± 0.035 in experiment [1] (10 nM); 0.182 ± 0.011 in experiment [1] (50 nM); 0.105 ± 0.0043 in experiment [1] (100 nM). Also, the surviving fraction came out at 0.0285 ± 0.0023 in experiment [1] (500 nM) and 0.0287 ± 0.0014 in experiment [1] (1000 nM). Moreover, the “area under dose-response curve” value came out at 2.64 in [2]; 0.641 in experiment [3]; 3.17 in [4]; 1.05 in [5]; 0.732 in [6]; 3.22 in [7]. The “area under dose-response curve” value in experiment [8] came out at 3; in experiment [9], 3.26; in [10] it was 3.13.
On to SYO1 SYNOVIAL, for which the surviving fraction in experiment [1] (0.5 nM) is 0.359 ± 0.023; in experiment [1] (1 nM), 0.663 ± 0.033; in [1] (5 nM), 0.325 ± 0.026; in experiment [1] (10 nM) it was 0.15 ± 0.024; in [1] (50 nM), 0.0272 ± 0.0011; in experiment [1] (100 nM), 0.0304 ± 0.00084. In addition, the surviving fraction was 0.0254 ± 0.0012 in experiment [1] (500 nM) and 0.0321 ± 0.0019 in [1] (1000 nM). Further, the “area under dose-response curve” value in experiment [2] came out at 1.98; in experiment [3], 0.539; in [4] it was 3.14; in [5], 0.528; in [6] it was 1.25; in experiment [7] it was 3.17. The “area under dose-response curve” value in experiment [8] stood at 2.64; in experiment [9] it was 3.18; in [10], 3.25.
For MHM BONE, the surviving fraction was 0.9523 ± 0.0021 in experiment [1] (0.5 nM); 0.969 ± 0.031 in [1] (1 nM); 0.94 ± 0.026 in [1] (5 nM); 0.927 ± 0.025 in experiment [1] (10 nM); 0.462 ± 0.022 in experiment [1] (50 nM); 0.334 ± 0.017 in experiment [1] (100 nM). The surviving fraction came out at 0.16 ± 0.016 in experiment [1] (500 nM) and 0.121 ± 0.0075 in experiment [1] (1000 nM). Moreover, the “area under dose-response curve” value in experiment [2] worked out at 3.12; in experiment [3], 1.43; in experiment [4], 3.35; in experiment [5] it was 2.08; in experiment [6] it was 1.94; in [7], 3.37. The “area under dose-response curve” value in [8] turned out to be 3.03; in experiment [9], 3.42; in experiment [10], 3.46.
As to PCI30 HEADNECK, the surviving fraction in experiment [1] (0.5 nM) was found to be 0.908 ± 0.043; in experiment [1] (1 nM), 0.912 ± 0.056; in experiment [1] (5 nM), 0.857 ± 0.024; in experiment [1] (10 nM) it was 0.497 ± 0.026; in [1] (50 nM) it was 0.437 ± 0.034; in experiment [1] (100 nM), 0.487 ± 0.027. For the same test system, the figures for the surviving fraction in [1] (500 nM) and in experiment [1] (1000 nM) were 0.356 ± 0.015 and 0.264 ± 0.015, respectively. In addition, the “area under dose-response curve” value in experiment [2] worked out at 2.81; in experiment [3], 0.529; in [4], 3.11; in experiment [5], 1.92; in [6] it was 1.32; in experiment [7], 2.84. Also, the “area under dose-response curve” value amounted to 3.26 in experiment [8], 3.38 in experiment [9] and 3.57 in experiment [10].
MDAMB436 BREAST: the surviving fraction in experiment [1] (0.5 nM) stood at 0.678 ± 0.074; in experiment [1] (1 nM) it was 0.677 ± 0.055; in experiment [1] (5 nM), 0.391 ± 0.047; in experiment [1] (10 nM), 0.318 ± 0.048; in [1] (50 nM) it was 0.2 ± 0.017; in [1] (100 nM), 0.177 ± 0.0068. Besides, the surviving fraction in experiment [1] (500 nM) was determined as 0.142 ± 0.018; in experiment [1] (1000 nM) it was 0.141 ± 0.022. Further, the “area under dose-response curve” value came out at 2.63 in experiment [2]; 1.01 in [3]; 3.02 in [4]; 1.06 in experiment [5]; 1.42 in experiment [6]; 3.12 in experiment [7]. In addition, the “area under dose-response curve” value was found to be 2.93 in [8], 3.4 in [9] and 3.18 in experiment [10].
Regarding G292 BONE, the surviving fraction was determined as 0.901 ± 0.015 in experiment [1] (0.5 nM); 0.874 ± 0.047 in experiment [1] (1 nM); 0.591 ± 0.037 in [1] (5 nM); 0.383 ± 0.014 in [1] (10 nM); 0.292 ± 0.0027 in [1] (50 nM); 0.18 ± 0.012 in [1] (100 nM). The surviving fraction in experiment [1] (500 nM) was found to be 0.121 ± 0.0073; in experiment [1] (1000 nM), 0.102 ± 0.0078. The “area under dose-response curve” value in [2] was determined as 2.24; in experiment [3], 0.722; in [4] it was 3.05; in [5] it was 1.35; in experiment [6], 1.47; in experiment [7], 3.36. For the same test system, the “area under dose-response curve” value worked out at 2.59 in [8], 3.34 in experiment [9] and 3.42 in experiment [10].
As for LNCAP PROSTATE, the surviving fraction in experiment [1] (0.5 nM) came to 0.98 ± 0.035; in experiment [1] (1 nM), 0.802 ± 0.047; in [1] (5 nM) it was 0.254 ± 0.017; in [1] (10 nM), 0.164 ± 0.01; in experiment [1] (50 nM) it was 0.0637 ± 0.0064; in experiment [1] (100 nM), 0.0507 ± 0.0067. Further, the surviving fraction turned out to be 0.023 ± 0.0035 in experiment [1] (500 nM) and 0.0203 ± 0.0011 in [1] (1000 nM). For the same test system, the “area under dose-response curve” value in [2] was 2.3; in experiment [3] it was 0.354; in experiment [4], 3.12; in [5], 0.813; in experiment [6], 1.82; in experiment [7], 3.19. Moreover, the “area under dose-response curve” value in experiment [8] is 3.5; in experiment [9] it was 3.19; in experiment [10] it was 3.35.

The values are drawn from the supplement of paper PMC6045584.
